Measured values published in patent US7867732B2, “Isolated polypeptide binding to a sugar chain, polynucleotide encoding the polypeptide and use of the polypeptide and polynucleotide” (National University of Corporation Hiroshima University, priority 2005, dated 2011).

What was measured:
BML-17 = test: Hemagglutination-inhibition test with BML-17 and trypsin-treated rabbit erythrocytes; assay type: cell-based, Bryopsis maxima; conditions: for Minimum inhibitory concentration: inhibition of BML-17 (agglutination titer 4) agglutination of TRBC; for Inhibition of agglutinating activity of BML-17 (in words): TRBC
Description: Hemagglutinating activity was measured using a micro titer method. Twenty-five μl of serially two-fold dilutions of each purified fraction solution adjusted with saline was placed on a micro titer plate. Each diluted solution was supplemented with 25 μl of a 2% suspension of trypsin-treated rabbit erythrocytes and was gently stirred. The mixture was allowed to stand at room temperature for 1.5 hours and agglutination was observed. Agglutination was evaluated with naked eye. Agglutination of 50% or greater percentage of red blood cells was evaluated as positive. Agglutinating activity was given by agglutination titer, i.e., the protein concentration of maximum diluent showing agglutinating activity.
In this Example, trypsin-treated rabbit red blood cells (TRBC) were used as red blood cells. TRBC was prepared as follows. First, 2 ml of blood was collected from the ear of a rabbit kept in laboratory. The blood sample was washed 3 times with about 50 ml of saline, and was supplemented with 50 ml of saline to obtain a 2% rabbit blood cell suspension. The solution was supplemented with 1/10 volume of 0.5% trypsin in saline, and was allowed to stand at 37° C. for 1.5 hours. The trypsin-treated red blood cells were then washed 3 times with saline, and were supplemented with 45 ml of saline to obtain a 2% suspension of trypsin-treated rabbit erythrocytes (or blood cells) (TRBC).
Hemagglutination-inhibition test was performed according to the following procedure. First, each 25 μl of serially two-fold dilutions of sugar solution in saline was placed on a micro titer plate. The concentration of the original solutions of sugars examined was 100 mM for monosaccharides and oligosaccharides, and 2 mg/ml for glycoproteins. Each solution was mixed with 25 μl of BML-17 solution that had been adjusted to an agglutination titer of 4, and allowed to stand for 1.5 hours at room temperature after gentle stirring. Then, 25 μl of TRBC was added, and the mixture was allowed to stand for 2 hours at room temperature to observe hemagglutination inhibitory capability. The presence or absence of hemagglutination inhibitory capability was determined by naked eye. The test was positive when no hemagglutination occurred in about 100% of the red blood cells.
The hemagglutination inhibition test used D-glucose, D-galactose, D-mannose, N-acetyl-D-glucosamine, N-acetyl-D-galactosamine, D-xylose, L-fucose, fructose, lactose, and raffinose as monosaccharides and oligosaccharides. As glycoproteins, mucin (bovine submaxillary gland) and asialomucin, fetuin (type III, calf serum) and asialofetuin, transferrin (human) and asialotransferrin, α1-acid glycoprotein (human) and alialo-α1-acid glycoprotein, and yeast mannan were used.

[1] = tested on: chicken egg yolk antibody (chicken IgY antibody); test: Search for lectins that bind to chicken egg yolk antibody by SPR (Biacore 2000); assay type: binding; conditions: chicken IgY immobilized as ligand
Excerpt: Assessment was made as to affinity of the different types of lectins and chicken egg yolk antibody (chicken IgY antibody). Briefly, using Biacore 2000 (BIACORE) that employs the principle of surface plasmon resonance method (hereinafter, “SPR method”), chicken egg yolk antibodies (chicken IgY antibodies) were immobilized as ligands on a sensor chip, and measurements were made according to manuals using each type of lectin solution as an analyte. The SPR technique allows for measurement of specific interactions between biomolecules both quickly and quantitatively, without labeling the biomolecules. According to this technique, the ligands are immobilized on a surface of the sensor chip, which is then supplemented with a solution of substance (analyte) that acts on the ligand. Slight changes in mass caused by the binding and dissociation of the molecules are then detected as changes in SPR signals. The mass change is represented by resonance unit (RU). One thousand RU is equivalent to a change in reflection angle of 0.1° caused by resonance, and it means that the analyte has bound to the ligand at 1 ng/mm^2. The surface of the sensor chip is coated with dextran, and the ligands are immobilized primarily via carboxyl groups that have been introduced into the dextran.
Note that, as permitted, the lectins tested as analytes were selected to have different sugar binding specificity. The chicken egg yolk antibody (chicken IgY antibodies) tested as ligands were obtained by purification from egg yolk, using Eggcellent Chicken IgY Purification Kit (Pierce Chem. Co. USA).

[2] = monosaccharides and oligosaccharides

Molecule	Minimum inhibitory concentration (BML-17; [2])	Minimum inhibitory concentration (BML-17; glycoproteins)	Inhibition of agglutinating activity of BML-17 (in words) (BML-17)	further results
O=C[C@H](O)[C@@H](O)[C@H](O)CO [D-Xylose]	— (No inhibition at 100 mM of mono- or oligosaccharides)	–	–	–
CC(=O)N[C@H]1C(O)O[C@H](CO)[C@H](O)[C@@H]1O (stereo partly drawn) [N-Acetyl-D-galactosamine]	— (No inhibition at 100 mM of mono- or oligosaccharides)	–	–	–
C[C@H](O)[C@@H](O)[C@@H](O)[C@H](O)C=O [L-Fucose]	— (No inhibition at 100 mM of mono- or oligosaccharides)	–	–	–
O=C[C@H](O)[C@@H](O)[C@@H](O)[C@H](O)CO [D-Galactose]	— (No inhibition at 100 mM of mono- or oligosaccharides)	–	–	–
αl-Acid glycoprotein: α1-acid glycoprotein (human)	–	— (No inhibition at 100 mM of mono- or oligosaccharides, or at 2 mg/ml of glycoproteins)	–	–
Mucin	–	250 µg/mL	inhibition occurred	–
Transferrin: transferrin (human), glycoprotein	–	2000 µg/mL	inhibition occurred	–
O=C(CO)[C@@H](O)[C@H](O)[C@H](O)CO [Fructose]	— (No inhibition at 100 mM of mono- or oligosaccharides)	–	–	–
O=C[C@H](O)[C@@H](O)[C@H](O)[C@H](O)CO [D-Glucose]	— (No inhibition at 100 mM of mono- or oligosaccharides)	–	–	–
OC[C@H]1O[C@H](OC[C@H]2O[C@H](O[C@]3(CO)O[C@H](CO)[C@@H](O)[C@@H]3O)[C@H](O)[C@@H](O)[C@@H]2O)[C@H](O)[C@@H](O)[C@H]1O [Raffinose]	— (No inhibition at 100 mM of mono- or oligosaccharides)	–	–	–
Asialotransferrin: asialo form of transferrin (human)	–	1000 µg/mL	inhibition occurred	–
OC[C@H]1O[C@@H](O[C@H]2[C@H](O)[C@@H](O)C(O)O[C@@H]2CO)[C@H](O)[C@@H](O)[C@H]1O (stereo partly drawn) [Lactose]	— (No inhibition at 100 mM of mono- or oligosaccharides)	–	–	–
CC(=O)N[C@H]1C(O)O[C@H](CO)[C@@H](O)[C@@H]1O (stereo partly drawn) [N-Acetyl-D-glucosamine]	— (No inhibition at 100 mM of mono- or oligosaccharides)	–	–	–
UEA-I: Ulex europaeus-derived lectin (protein) SDDLSFKFKNFSQNGKDLSFQGDASVIETGVLQLNKVGNNLPDETGGIARYIAPIHIWNCNTGEVASFITSFSFFMETSANPKAATDGLTFFLAPPDSPLRRAGGYFGLFEDTKDNDSSYQTVAVEFDTIGSPVNFDDPGFPHIGIDVNRVKSINAERWNKRYGLNNVANVEIIYEASSKTLTASLTYPSDQTSISVTSIVDLKEILPEWVSVGFSGGTYIGRQATHEVLNWYFTSNLINTNS	–	–	–	Binding to chicken egg yolk antibody (in words) [1]: binding to chicken egg yolk antibody (chicken IgY antibodies) occurs
Fetuin: fetuin (type III, calf serum) (protein) IPLDPVAGYKEPACDDPDTEQAALAAVDYINKHLPRGYKHTLNQIDSVKVWPRRPTGEVYDIEIDTLETTCHVLDPTPLANCSVRQQTQHAVEGDCDIHVLKQDGQFSVLFTKCDSSPDSAEDVRKLCPDCPLLAPLNDSRVVHAVEVALATFNAESNGSYLQLVEISRAQFVPLPVSVSVEFAVAATDCIAKEVVDPTKCNLLAEKQYGFCKGSVIQKALGGEDVRVTCTLFQTQPVIPQPQPDGAEAEAPSAVPDAAGPTPSAAGPPVASVVVGPSVVAVPLPLHRAHYDLRHTFSGVASVESSSGEAFHVGKTPIVGQPSIPGGPVRLCPGRIRYFKI	–	1000 µg/mL	inhibition occurred	–
Asialofetuin: asialo form of fetuin (protein) IPLDPVAGYKEPACDDPDTEQAALAAVDYINKHLPRGYKHTLNQIDSVKVWPRRPTGEVYDIEIDTLETTCHVLDPTPLANCSVRQQTQHAVEGDCDIHVLKQDGQFSVLFTKCDSSPDSAEDVRKLCPDCPLLAPLNDSRVVHAVEVALATFNAESNGSYLQLVEISRAQFVPLPVSVSVEFAVAATDCIAKEVVDPTKCNLLAEKQYGFCKGSVIQKALGGEDVRVTCTLFQTQPVIPQPQPDGAEAEAPSAVPDAAGPTPSAAGPPVASVVVGPSVVAVPLPLHRAHYDLRHTFSGVASVESSSGEAFHVGKTPIVGQPSIPGGPVRLCPGRIRYFKI	–	500 µg/mL	inhibition occurred	–
